Where two headings read alike, the source gives them in different places.
What was measured:
Lungs cancer cells A549 [1] = tested on: Lungs cancer cells A549
Eschericia coli = test: Bacterial panel testing, MIC by broth microdilution; assay type: cell-based; details: 20-24 hours growth
Summary of the method: (§1)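 Bacteria are cultured briefly at 37° C, standardized to McFarland density and diluted into Mueller-Hinton or Brain Heart infusion media. Compound from a 10 μg/ml DMSO solution is serially diluted twofold in this inoculated medium, and growth inhibition is scored as clear wells after 20-24 h.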

Enterococcus faecium = test: as above; assay type: cell-based; details: 20-24 hours growth
Summary of the method: as §1

Pseudomonas aeruginosa = test: as above; assay type: cell-based; details: 20-24 hours growth
Summary of the method: as §1

Staphylococcus aureus = test: as above; assay type: cell-based; details: 20-24 hours growth
Summary of the method: as §1

Salmonella choleraesuis = test: as above; assay type: cell-based; details: 20-24 hours growth
Summary of the method: as §1

Lungs cancer cells A549 [2] = test: Mammalian cytotoxicity
Bacillus atrophaeus = test: Bacterial panel testing, MIC by broth microdilution; assay type: cell-based; details: 20-24 hours growth
Summary of the method: as §1

SMILES | Mammalian Cytotoxicity IC50 (Lungs cancer cells A549 [1]) [µg/mL] | MIC EC (Eschericia coli) [µg/mL] | MIC EF (Enterococcus faecium) [µg/mL] | MIC PA (Pseudomonas aeruginosa) [µg/mL] | MIC SA (Staphylococcus aureus) [µg/mL] | MIC SC (Salmonella choleraesuis) [µg/mL] | Mammalian Cytotoxicity IC50 (Lungs cancer cells A549 [2]) [µg/mL] | MIC BA (Bacillus atrophaeus) [µg/mL]
Cl.Cl.Cl.Cl.Cl.Cl.Cl.NCCSC[C@H]1O[C@@H]2O[C@H]3[C@H](O)[C@@H](O)[C@@H](O[C@H]4[C@H](O)[C@@H](O)[C@@H](O[C@H]5[C@H](O)[C@@H](O)[C@@H](O[C@H]6[C@H](O)[C@@H](O)[C@@H](O[C@H]7[C@H](O)[C@@H](O)[C@@H](O[C@H]8[C@H](O)[C@@H](O)[C@@H](O[C@H]1[C@H](O)[C@H]2O)O[C@@H]8CSCCN)O[C@@H]7CSCCN)O[C@@H]6CSCCN)O[C@@H]5CSCCN)O[C@@H]4CSCCN)O[C@@H]3CSCCN | 829 | >200 | >200 | >200 | >200 | >200 |  | 
Cl.Cl.Cl.Cl.Cl.Cl.Cl.NCCCSC[C@H]1O[C@@H]2O[C@H]3[C@H](O)[C@@H](O)[C@@H](O[C@H]4[C@H](O)[C@@H](O)[C@@H](O[C@H]5[C@H](O)[C@@H](O)[C@@H](O[C@H]6[C@H](O)[C@@H](O)[C@@H](O[C@H]7[C@H](O)[C@@H](O)[C@@H](O[C@H]8[C@H](O)[C@@H](O)[C@@H](O[C@H]1[C@H](O)[C@H]2O)O[C@@H]8CSCCCN)O[C@@H]7CSCCCN)O[C@@H]6CSCCCN)O[C@@H]5CSCCCN)O[C@@H]4CSCCCN)O[C@@H]3CSCCCN | 191 |  | >200 | >200 | >200 | >200 |  | 
Cl.Cl.Cl.Cl.Cl.Cl.Cl.NCCCCSC[C@H]1O[C@@H]2O[C@H]3[C@H](O)[C@@H](O)[C@@H](O[C@H]4[C@H](O)[C@@H](O)[C@@H](O[C@H]5[C@H](O)[C@@H](O)[C@@H](O[C@H]6[C@H](O)[C@@H](O)[C@@H](O[C@H]7[C@H](O)[C@@H](O)[C@@H](O[C@H]8[C@H](O)[C@@H](O)[C@@H](O[C@H]1[C@H](O)[C@H]2O)O[C@@H]8CSCCCCN)O[C@@H]7CSCCCCN)O[C@@H]6CSCCCCN)O[C@@H]5CSCCCCN)O[C@@H]4CSCCCCN)O[C@@H]3CSCCCCN | 198 | >200 | >200 | >200 | >200 | >200 |  | 
CC(C)C[C@H](N)C(=O)NC[C@H]1O[C@@H]2O[C@H]3[C@H](O)[C@@H](O)[C@@H](O[C@H]4[C@H](O)[C@@H](O)[C@@H](O[C@H]5[C@H](O)[C@@H](O)[C@@H](O[C@H]6[C@H](O)[C@@H](O)[C@@H](O[C@H]7[C@H](O)[C@@H](O)[C@@H](O[C@H]8[C@H](O)[C@@H](O)[C@@H](O[C@H]1[C@H](O)[C@H]2O)O[C@@H]8CNC(=O)[C@@H](N)CC(C)C)O[C@@H]7CNC(=O)[C@@H](N)CC(C)C)O[C@@H]6CNC(=O)[C@@H](N)CC(C)C)O[C@@H]5CNC(=O)[C@@H](N)CC(C)C)O[C@@H]4CNC(=O)[C@@H](N)CC(C)C)O[C@@H]3CNC(=O)[C@@H](N)CC(C)C |  | >200 | >200 | >200 | >200 | >200 | 215 | 
N[C@@H](Cc1ccccc1)C(=O)NC[C@H]1O[C@@H]2O[C@H]3[C@H](O)[C@@H](O)[C@@H](O[C@H]4[C@H](O)[C@@H](O)[C@@H](O[C@H]5[C@H](O)[C@@H](O)[C@@H](O[C@H]6[C@H](O)[C@@H](O)[C@@H](O[C@H]7[C@H](O)[C@@H](O)[C@@H](O[C@H]8[C@H](O)[C@@H](O)[C@@H](O[C@H]1[C@H](O)[C@H]2O)O[C@@H]8CNC(=O)[C@@H](N)Cc1ccccc1)O[C@@H]7CNC(=O)[C@@H](N)Cc1ccccc1)O[C@@H]6CNC(=O)[C@@H](N)Cc1ccccc1)O[C@@H]5CNC(=O)[C@@H](N)Cc1ccccc1)O[C@@H]4CNC(=O)[C@@H](N)Cc1ccccc1)O[C@@H]3CNC(=O)[C@@H](N)Cc1ccccc1 |  | >200 | >200 | >200 | >200 | >200 | >2000 | 
N=C(N)NCCSC[C@H]1O[C@@H]2O[C@H]3[C@H](O)[C@@H](O)[C@@H](O[C@H]4[C@H](O)[C@@H](O)[C@@H](O[C@H]5[C@H](O)[C@@H](O)[C@@H](O[C@H]6[C@H](O)[C@@H](O)[C@@H](O[C@H]7[C@H](O)[C@@H](O)[C@@H](O[C@H]8[C@H](O)[C@@H](O)[C@@H](O[C@H]1[C@H](O)[C@H]2O)O[C@@H]8CSCCNC(=N)N)O[C@@H]7CSCCNC(=N)N)O[C@@H]6CSCCNC(=N)N)O[C@@H]5CSCCNC(=N)N)O[C@@H]4CSCCNC(=N)N)O[C@@H]3CSCCNC(=N)N |  | >200 | >200 | >200 | >200 | >200 | 510 | 
NCCCCC(=O)NC[C@H]1O[C@@H]2O[C@H]3[C@H](O)[C@@H](O)[C@@H](O[C@H]4[C@H](O)[C@@H](O)[C@@H](O[C@H]5[C@H](O)[C@@H](O)[C@@H](O[C@H]6[C@H](O)[C@@H](O)[C@@H](O[C@H]7[C@H](O)[C@@H](O)[C@@H](O[C@H]8[C@H](O)[C@@H](O)[C@@H](O[C@H]1[C@H](O)[C@H]2O)O[C@@H]8CNC(=O)CCCCN)O[C@@H]7CNC(=O)CCCCN)O[C@@H]6CNC(=O)CCCCN)O[C@@H]5CNC(=O)CCCCN)O[C@@H]4CNC(=O)CCCCN)O[C@@H]3CNC(=O)CCCCN |  | >200 | >200 | >200 | >200 | >200 | 755 | 
CC(C)(C)OC(=O)N[C@@H](Cc1ccccc1)C(=O)NC[C@H]1O[C@@H]2O[C@H]3[C@H](O)[C@@H](O)[C@@H](O[C@H]4[C@H](O)[C@@H](O)[C@@H](O[C@H]5[C@H](O)[C@@H](O)[C@@H](O[C@H]6[C@H](O)[C@@H](O)[C@@H](O[C@H]7[C@H](O)[C@@H](O)[C@@H](O[C@H]8[C@H](O)[C@@H](O)[C@@H](O[C@H]1[C@H](O)[C@H]2O)O[C@@H]8CNC(=O)[C@H](Cc1ccccc1)NC(=O)OC(C)(C)C)O[C@@H]7CNC(=O)[C@H](Cc1ccccc1)NC(=O)OC(C)(C)C)O[C@@H]6CNC(=O)[C@H](Cc1ccccc1)NC(=O)OC(C)(C)C)O[C@@H]5CNC(=O)[C@H](Cc1ccccc1)NC(=O)OC(C)(C)C)O[C@@H]4CNC(=O)[C@H](Cc1ccccc1)NC(=O)OC(C)(C)C)O[C@@H]3CNC(=O)[C@H](Cc1ccccc1)NC(=O)OC(C)(C)C |  | >200 | >200 | >200 | >200 | >200 | 193 | >200
CC(C)C[C@H](NC(=O)OC(C)(C)C)C(=O)NC[C@H]1O[C@@H]2O[C@H]3[C@H](O)[C@@H](O)[C@@H](O[C@H]4[C@H](O)[C@@H](O)[C@@H](O[C@H]5[C@H](O)[C@@H](O)[C@@H](O[C@H]6[C@H](O)[C@@H](O)[C@@H](O[C@H]7[C@H](O)[C@@H](O)[C@@H](O[C@H]8[C@H](O)[C@@H](O)[C@@H](O[C@H]1[C@H](O)[C@H]2O)O[C@@H]8CNC(=O)[C@H](CC(C)C)NC(=O)OC(C)(C)C)O[C@@H]7CNC(=O)[C@H](CC(C)C)NC(=O)OC(C)(C)C)O[C@@H]6CNC(=O)[C@H](CC(C)C)NC(=O)OC(C)(C)C)O[C@@H]5CNC(=O)[C@H](CC(C)C)NC(=O)OC(C)(C)C)O[C@@H]4CNC(=O)[C@H](CC(C)C)NC(=O)OC(C)(C)C)O[C@@H]3CNC(=O)[C@H](CC(C)C)NC(=O)OC(C)(C)C |  | >200 | >200 | >200 | >200 | >200 | 144 | >200
Cl.Cl.Cl.Cl.Cl.Cl.Cl.NCCCCCCSC[C@H]1O[C@@H]2O[C@H]3[C@H](O)[C@@H](O)[C@@H](O[C@H]4[C@H](O)[C@@H](O)[C@@H](O[C@H]5[C@H](O)[C@@H](O)[C@@H](O[C@H]6[C@H](O)[C@@H](O)[C@@H](O[C@H]7[C@H](O)[C@@H](O)[C@@H](O[C@H]8[C@H](O)[C@@H](O)[C@@H](O[C@H]1[C@H](O)[C@H]2O)O[C@@H]8CSCCCCCCN)O[C@@H]7CSCCCCCCN)O[C@@H]6CSCCCCCCN)O[C@@H]5CSCCCCCCN)O[C@@H]4CSCCCCCCN)O[C@@H]3CSCCCCCCN | 321 |  | >200 | >200 | >200 |  |  | 
Cl.Cl.Cl.Cl.Cl.Cl.Cl.Cl.Cl.Cl.Cl.Cl.Cl.Cl.NCCCC(N)C(=O)NCC1OC2OC3C(CNC(=O)C(N)CCCN)OC(OC4C(CNC(=O)C(N)CCCN)OC(OC5C(CNC(=O)C(N)CCCN)OC(OC6C(CNC(=O)C(N)CCCN)OC(OC7C(CNC(=O)C(N)CCCN)OC(OC8C(CNC(=O)C(N)CCCN)OC(OC1C(O)C2O)C(O)C8O)C(O)C7O)C(O)C6O)C(O)C5O)C(O)C4O)C(O)C3O (stereo not shown) | 860 | >200 | >200 |  | >200 | >200 |  | 
Cl.Cl.Cl.Cl.Cl.Cl.NCC1OC2OC3C(CN)OC(OC4C(CN)OC(OC5C(CN)OC(OC6C(CN)OC(OC7C(CN)OC(OC1C(O)C2O)C(O)C7O)C(O)C6O)C(O)C5O)C(O)C4O)C(O)C3O (stereo not shown) |  | >200 | >200 |  | >200 | >200 | 109.3 | >200
Cl.Cl.Cl.Cl.Cl.Cl.Cl.NCc1ccccc1CSCC1OC2OC3C(CSCc4ccccc4CN)OC(OC4C(CSCc5ccccc5CN)OC(OC5C(CSCc6ccccc6CN)OC(OC6C(CSCc7ccccc7CN)OC(OC7C(CSCc8ccccc8CN)OC(OC8C(CSCc9ccccc9CN)OC(OC1C(O)C2O)C(O)C8O)C(O)C7O)C(O)C6O)C(O)C5O)C(O)C4O)C(O)C3O (stereo not shown) | 193.5 |  | >100 | >100 |  |  |  | 

Source: patent US20110071108A1, “Beta-Cyclodextrin Derivatives as Antibacterial Agents” (Pinnacle Pharmaceuticals, Inc., priority 2005, published 2011)
